In ChEMBL document CHEMBL6096739, “The Myxobacterial Genus Archangium: A Prolific and Underexploited Source of Bioactive Secondary Metabolites” (J Med Chem, 2025):
In brackets after ≈: the same amount, converted by molar mass. Numbered stars: 1 amine (or outer) side, 2 acyl side, 3 side chain; on linkers, the order of the positions; unused ones are H or OH. Square brackets hold non-standard residues; d marks the D form. Peptide text beside a SMILES is read from it. X1 = COc1cccc2[nH]c(C)c(C[C@H](N[*:1])C(=O)[*:2])c12; dAla(ψthiazole) = C[C@@H](N[*:1])c1nc(C(=O)[*:2])cs1; Trp(4-OMe) = COc1cccc2[nH]cc(C[C@H](N)C(=O)O)c12; X2 = O=C(c1csc([C@@H](CO)N[*:1])n1)[*:2]; GlyΨ(Thz) = O=C(c1csc(CN[*:1])n1)[*:2]; dAbu = CC[C@@H](N)C(=O)O; Dha = C=C(N)C(=O)O; Sar = CNCC(=O)O

Experiments:
[1] = system: Metschnikowia pulcherrima; assay: Antifungal activity against Metschnikowia pulcherrima DSM 70321; type: functional
[2] = Cytotoxicity against mouse L929 cells assessed reduction in cell viability incubated for 24 hrs by MTT assay; type: toxicity, cell-based
[3] = system: U-937; assay: Cytotoxicity activity against human U-937 cells assessed as reduction in cell viability measured after 24 hrs by CCK-8 assay; type: functional, cell-based
[4] = Toxicity in po dosed rat assessed as lethal dose; type: organism-based; parameters: unit not given here; conditions: in vivo
[5] = system: Clostridium perfringens; assay: Antibacterial activity against Clostridium perfringens assessed as bacterial growth inhibition after 24 hrs by microdilution method; type: functional
[6] = system: Botrytis cinerea; assay: Antifungal activity against Botrytis cinerea; type: functional
[7] = system: Globisporangium debaryanum; assay: Antifungal activity against Pythium debaryanum DSM 62946; type: functional
[8] = system: KB; assay: Cytotoxicity against human KB cells assessed as reduction in cell viability measured after 72 hrs by MTT assay; type: functional, cell-based
[9] = system: Pseudomonas aeruginosa; assay: Antibacterial activity against Pseudomonas aeruginosa ATCC 27853 assessed as bacterial growth inhibition; type: functional, organism-based
[10] = system: HCT-116; assay: Cytotoxicity against human HCT-116 cells assessed as reduction in cell growth measured after 72 hrs by MTT assay; type: functional, cell-based; conditions: HCT-116, 72 h

With N#CCc1c[nH]c2ccccc12 the MIC [1] was < 1 µg/mL.
For O=Cc1ccnc2ccccc12, the MIC [1] was < 1 µg/mL.
With O=C(O)c1ccnc2ccccc12 the MIC [1] was < 1 µg/mL.
With O=C(CO)c1c[nH]c2ccccc12 the MIC [1] was < 1 µg/mL.
Molecule CC1=C(C[C@H](O)/C=C\C=C\[C@@H](C)[C@@H](O)/C(C)=C/CC(C)C)OC(C)(O)C1=O (some centres not stated) has an IC50 at 24 h [2] of 1000 nM.
With O/N=C/Cc1c[nH]c2ccccc12 the MIC [1] was < 1 µg/mL.
CC[C@H](C)[C@H](NC(=O)[C@H]1CCCCN1C)C(=O)N(COC(C)=O)[C@H](C[C@@H](OC(C)=O)c1nc(C(=O)N[C@@H](Cc2ccc(O)cc2)C[C@H](C)C(=O)O)cs1)C(C)C gave an IC50 ([3]; Homo sapiens, U-937, 24 h) of 0.005 nM.
With C=C(NC(=O)/C(C)=C/C=C\CCCCCC(C)C)C(=O)N/C(=C\OC)C(=O)OC the IC50 at 24 h [2] was 3100 nM.
In the case of C/C=C1/NC(=O)[C@@H]2CSC(=N2)[C@@H]2CCCN2C(=O)[C@@H](CC(C)C)NC(=O)[C@H](C)NC(=O)[C@@H](O)COC(=O)[C@H](C(C)C)N(C)C(=O)[C@H]([C@@H](C)O)NC(=O)[C@@H]2CCCCN2C1=O, the LD50 [4] is reported as 2.3.
C=C/C=C(\C)[C@@H](O)CC[C@@H](C)/C=C/[C@@H]1CC[C@@H](C)C(=O)CC(=O)N[C@@H](C)CCC(=O)[C@@H](C)[C@H](O)[C@@H](C)/C=C(\C)C(=O)O1 gave an MIC [5] of 0.78 µg/mL (≈ 1.33 µM).
In the case of CCC(=O)OCN(C(=O)[C@@H](NC(=O)[C@H]1CCCCN1C)[C@@H](C)CC)[C@H](C[C@@H](OC(C)=O)c1nc(C(=O)N[C@@H](Cc2ccccc2)C[C@H](C)C(=O)O)cs1)C(C)C, the IC50 ([3]; Homo sapiens, U-937, 24 h) is reported as 0.005 nM.
Molecule COC(=O)/C=C(/OC)[C@H](C)[C@H](/C=C/c1csc(-c2csc(C3(C)CO3)n2)n1)OC (some centres not stated) has an MIC [6] of 0.04 µg/mL (≈ 0.0916 µM), an MIC [7] of 0.0947 µM (≈ 0.0413 µg/mL) and an MIC [1] of 0.04 µg/mL (≈ 0.0916 µM).
Molecule CC[C@H](C)[C@H](NC(=O)[C@H]1CCCCN1C)C(=O)N(COC(C)=O)[C@H](C[C@@H](OC(C)=O)c1nc(C(=O)N[C@@H](Cc2ccccc2)C[C@H](C)C(=O)O)cs1)C(C)C has an IC50 ([3]; Homo sapiens, U-937, 24 h) of 0.005 nM.
Molecule COC(=O)/C=C(/OC)[C@H](C)[C@H](/C=C/c1csc(C2CSC(C(C)C)=N2)n1)OC (some centres not stated) has an MIC [6] of 0.04 µg/mL (≈ 0.0942 µM), an MIC [7] of 0.0947 µM (≈ 0.0402 µg/mL) and an MIC [1] of 0.04 µg/mL (≈ 0.0942 µM).
COC(=O)/C=C(/OC)[C@H](C)[C@H](/C=C/c1csc(-c2csc(C(C)=O)n2)n1)OC gave an MIC [6] of 0.04 µg/mL (≈ 0.0947 µM), an MIC [7] of 0.0947 µM (≈ 0.04 µg/mL) and an MIC [1] of 0.04 µg/mL (≈ 0.0947 µM).
For O/N=C\c1ccnc2ccccc12, the MIC [1] was < 1 µg/mL.
With C=C(NC(=O)/C(C)=C/C=C\CCCCCCC)C(=O)N/C(=C\OC)C(=O)OC the IC50 at 24 h [2] was 3100 nM.
CC1=C(/C=C/C=C\C=C\[C@@H](C)[C@@H](O)/C(C)=C/CC(C)C)OC(C)(O)C1=O (some centres not stated) showed an IC50 at 24 h [2] of 1000 nM.
Molecule C/C=C1\NC(=O)[C@H]2CSC(=N2)[C@@H]2C[C@@H](C)N2C(=O)[C@@H](CC(C)C)NC(=O)[C@H](C)NC(=O)[C@@H](O)COC(=O)[C@H](C(C)C)N(C)C(=O)[C@H]([C@@H](C)O)NC(=O)[C@@H]2CCCCN2C1=O has an LD50 [4] of 2.3.
For C/C=C1\NC(=O)[C@H]2CSC(=N2)[C@@H]2C[C@@H](C)N2C(=O)[C@@H](CC(C)C)NC(=O)[C@H](C)NC(=O)[C@@H](O)COC(=O)[C@H](C(C)C)N(C)C(=O)[C@H]([C@@H](C)O)NC(=O)[C@@H]2CCCN2C1=O, the LD50 [4] was 2.3.
Molecule CCC(=O)OCN(C(=O)[C@@H](NC(=O)[C@H]1CCCCN1C)[C@@H](C)CC)[C@H](C[C@@H](OC(C)=O)c1nc(C(=O)N[C@@H](Cc2ccc(O)cc2)C[C@H](C)C(=O)O)cs1)C(C)C has an IC50 ([3]; Homo sapiens, U-937, 24 h) of 0.005 nM.
In the case of COC(=O)/C=C(/OC)[C@H](C)[C@H](/C=C/c1csc(C2CSC(C3(C)CO3)=N2)n1)OC (some centres not stated), the MIC [6] is reported as 0.04 µg/mL (≈ 0.0912 µM), the MIC [7] is reported as 0.0947 µM (≈ 0.0415 µg/mL) and the MIC [1] is reported as 0.04 µg/mL (≈ 0.0912 µM).
Molecule CCCC(=O)OCN(C(=O)[C@@H](NC(=O)[C@H]1CCCCN1C)[C@@H](C)CC)[C@H](C[C@@H](OC(C)=O)c1nc(C(=O)N[C@@H](Cc2ccccc2)C[C@H](C)C(=O)O)cs1)C(C)C has an IC50 ([3]; Homo sapiens, U-937, 24 h) of 0.005 nM.
Molecule CC[C@H](C)[C@H](NC(=O)[C@H]1CCCCN1C)C(=O)N(COC(=O)C=C(C)C)[C@H](C[C@@H](OC(C)=O)c1nc(C(=O)N[C@@H](Cc2ccc(O)cc2)C[C@H](C)C(=O)O)cs1)C(C)C has an IC50 ([3]; Homo sapiens, U-937, 24 h) of 0.005 nM.
In the case of OCc1ccnc2ccccc12, the MIC [1] is reported as < 1 µg/mL.
C/C1=C\C=C=CCCC/C=C/[C@H]2O[C@@H](C(=O)O[C@H](C)[C@H]1O)[C@@H](O)[C@@H]2O gave an MIC [5] of 2.5 µg/mL (≈ 7.13 µM).
With C=C(NC(=O)/C(C)=C/C=C\CCCCC(C)C)C(=O)N/C(=C\OC)C(=O)OC the IC50 at 24 h [2] was 3100 nM.
COCC(C)C1=NC(c2nc(/C=C/[C@H](OC)[C@@H](C)/C(=C\C(=O)OC)OC)cs2)CS1 (some centres not stated) showed an MIC [6] of 0.04 µg/mL (≈ 0.088 µM), an MIC [7] of 0.0947 µM (≈ 0.0431 µg/mL) and an MIC [1] of 0.04 µg/mL (≈ 0.088 µM).
C=C(C)C1=NC(c2nc(/C=C/[C@H](OC)[C@@H](C)/C(=C\C(=O)OC)OC)cs2)CS1 (some centres not stated) gave an MIC [6] of 0.04 µg/mL (≈ 0.0947 µM), an MIC [7] of 0.0947 µM (≈ 0.04 µg/mL) and an MIC [1] of 0.04 µg/mL (≈ 0.0947 µM).
Molecule C=C(C)c1nc(-c2nc(/C=C/[C@H](OC)[C@@H](C)/C(=C\C(=O)OC)OC)cs2)cs1 has an MIC [6] of 0.04 µg/mL (≈ 0.0951 µM), an MIC [7] of 0.0947 µM (≈ 0.0398 µg/mL) and an MIC [1] of 0.04 µg/mL (≈ 0.0951 µM).
C/C=C1/NC(=O)[C@@H]2CSC(=N2)[C@@H]2CCCN2C(=O)[C@@H](CC(C)C)NC(=O)[C@H](C)NC(=O)[C@@H](O)COC(=O)[C@H](C(C)C)N(C)C(=O)[C@H]([C@@H](C)O)NC(=O)[C@@H]2CCCN2C1=O gave an LD50 [4] of 2.3.
For C=C1NC(=O)[C@@H](C)NC(=O)CNC(=O)[C@H](Cc2c[nH]c3cccc(OC)c23)NC(=O)[C@H](Cc2c[nH]c3ccccc23)NC(=O)c2csc(n2)[C@@H](C)NC(=O)CN(C)C1=O (cyclo(W[Trp(4-OMe)]G[dA][Dha][Sar][dAla(ψthiazole)])), the IC50 [8] was 5 nM.
Work on C=C1NC(=O)[C@@H](C)NC(=O)CNC(=O)[C@H](Cc2c(C)[nH]c3cccc(OC)c23)NC(=O)[C@H](Cc2c[nH]c3ccccc23)NC(=O)c2csc(n2)[C@@H](C)NC(=O)CN(C)C1=O (cyclo(W[X1]G[dA][Dha][Sar][dAla(ψthiazole)])) yielded an IC50 [8] of 5 nM.
C=C1NC(=O)[C@@H](CC)NC(=O)CNC(=O)[C@H](Cc2c(C)[nH]c3cccc(OC)c23)NC(=O)[C@H](Cc2c[nH]c3ccccc23)NC(=O)c2csc(n2)[C@@H](C)NC(=O)CN(C)C1=O (cyclo(W[X1]G[dAbu][Dha][Sar][dAla(ψthiazole)])) gave an IC50 [8] of 5 nM.
For C=C1NC(=O)[C@@H](C)NC(=O)CNC(=O)[C@H](Cc2c[nH]c3cccc(OC)c23)NC(=O)[C@H](Cc2c[nH]c3ccccc23)NC(=O)c2csc(n2)CNC(=O)CN(C)C1=O (cyclo([Dha][Sar][GlyΨ(Thz)]W[Trp(4-OMe)]G[dA])), the IC50 [8] was 5 nM.
Work on C=C1NC(=O)[C@@H](C)NC(=O)CNC(=O)[C@H](Cc2c[nH]c3cccc(OC)c23)NC(=O)[C@H](Cc2c[nH]c3ccccc23)NC(=O)c2csc(n2)[C@@H](CO)NC(=O)CN(C)C1=O (cyclo([Dha][Sar][X2]W[Trp(4-OMe)]G[dA])) yielded an IC50 [8] of 5 nM.
In the case of C=C1NC(=O)[C@@H](CC)NC(=O)CNC(=O)[C@H](Cc2c[nH]c3cccc(OC)c23)NC(=O)[C@H](Cc2c[nH]c3ccccc23)NC(=O)c2csc(n2)[C@@H](CO)NC(=O)CN(C)C1=O (cyclo([Dha][Sar][X2]W[Trp(4-OMe)]G[dAbu])), the IC50 [8] is reported as 5 nM.
In the case of C=C1NC(=O)[C@@H](CC)NC(=O)CNC(=O)[C@H](Cc2c[nH]c3cccc(OC)c23)NC(=O)[C@H](Cc2c[nH]c3ccccc23)NC(=O)c2csc(n2)[C@@H](C)NC(=O)CN(C)C1=O (cyclo([Dha][Sar][dAla(ψthiazole)]W[Trp(4-OMe)]G[dAbu])), the IC50 [9] is reported as 0.05 µg/mL (≈ 0.0596 µM) and the IC50 [8] is reported as 5 nM.
With CCCC(=O)OCN(C(=O)[C@@H](NC(=O)[C@H]1CCCCN1C)[C@@H](C)CC)[C@H](C[C@@H](OC(C)=O)c1nc(C(=O)N[C@@H](Cc2ccc(O)cc2)C[C@H](C)C(=O)O)cs1)C(C)C [TUBULYSIN B] the IC50 ([3]; Homo sapiens, U-937, 24 h) was 0.005 nM.
Work on CC[C@H](C)[C@H](NC(=O)[C@H]1CCCCN1C)C(=O)N(COC(=O)CC(C)C)[C@H](C[C@@H](OC(C)=O)c1nc(C(=O)N[C@@H](Cc2ccccc2)C[C@H](C)C(=O)O)cs1)C(C)C [TUBULYSIN D] yielded an IC50 [10] of 0.003 nM and an IC50 ([3]; Homo sapiens, U-937, 24 h) of 0.005 nM.
In the case of CC[C@H](C)[C@H](NC(=O)[C@H]1CCCCN1C)C(=O)N(COC(=O)CC(C)C)[C@H](C[C@@H](OC(C)=O)c1nc(C(=O)N[C@@H](Cc2ccc(O)cc2)C[C@H](C)C(=O)O)cs1)C(C)C [TUBULYSIN-A], the IC50 ([3]; u-937) is reported as 0.005 nM.
